SMILES strings stand for the structures.

Data set [1] in a line: Microsomal (metabolic) stability, human liver microsomes. Conditions: human, liver microsomes. An excerpt:
(§1) By using the measured microsomal in vitro t1/2, a calculated value for the intrinsic clearance Clint can be determined. This value states the measure in which a drug that is not bound to plasma proteins is irreversibly removed from the body by the liver. This value is expressed in mL/min/kg which can be interpreted as the volume of blood in mL that is cleared of a drug per minute per kilogram of body weight. The CLint is less sensitive to used variables in ADME assays since the amount of microsomal protein and the volume of the incubation are all taken into account. (Sohlenius-Sternbeck et al., Xenobiotica, 2012, 42, 841-853)
(§2) Liver microsomes (20 mg protein/ml), NADPH regenerating system solutions A & B and 5 mM stock compound solution (100% DMSO) are prepared. The reaction mixture finally contains 713 μL purified water, 200 μL 0.5 M potassium phosphate pH 7.4, 50 μL NADPH regenerating system solution A (BD Biosciences Cat. No. 451220), 10 μL NADPH regenerating system solution B (BD Biosciences Cat. No. 451200) and 2 μL of the compound stock solution (10 μM final concentration). The reaction mixture is warmed to 37° C. for 5 minutes in a water bath and the reaction is initiated by addition of 25 μL of liver microsomes (0.5 mg protein/ml final concentration). At different time points (0 min-15 min-30 min-60 min-120 min-240 min-360 min-24 h), 20 μL is withdrawn and 80 μL cold acetonitrile is added on ice for 10 minutes. Then the mixtures are centrifuged at 13 000 rpm for 5 min at 4° C. The supernatant is further diluted in 90% water/MeCN (1/25) to fall within the range of the LC/MS/MS analysis. At each time point, the compound is analysed using LC/MS/MS with the same UPLC system as described above. A standard curve of six points was made to fit the measured concentrations. Verapamil was used as a positive control.
(§3) All obtained readouts were processed using Microsoft Excel. In order to determine the microsomal half-life t1/2 of the compounds, the rate constant k was determined by plotting the exponential decay graphs using GraFit. Microsomal t1/2 was determined using the following formula: […]
On the technique in general: Liver microsomes are a subcellular fraction often used to study metabolism.

Data set [2] in a line: Plasma stability, mouse plasma. The class given is in vitro ADME. Conditions: 37° C., remaining parent compound, read-out: Plasma stability (% recovery after 6 h), Mouse. Here is the method:
(§4) 5 μl of a 10 mM stock solution of the compound in DMSO was added to 995 μl of plasma to obtain a 50 μM final solution. The mixture was gently shaken for 6 h at 37° C. Aliquots of 100 μl were taken at various time points (0, 0.5 h, 1 h, 2 h, 3 h and 6 h) and diluted with 400 μl of cold methanol (stored at 4° C.). The suspension was centrifuged at 14000 rpm for 5 min. 50 μl of the supernatant was diluted with 950 μl of methanol and analysed with LC/MS/MS. The samples were analysed in triplicate. The experiment was done in duplicate. […] Enalapril maleate was used as a control in mice, rats, and in human.

A short description of data set [3]: Microsomal (metabolic) stability, rat liver microsomes. Conditions: rat, liver microsomes.
Excerpt: as §1, §2, §3

A short description of data set [4]: Kinetic solubility (turbidimetric method). The data set is classed as physicochemical. The following applies: 10 mM PBS pH 7.4, 2% DMSO, test range 3.125-200 μM, 2 h at 37° C. Here is the method: A turbidimetric method was used. First a series of DMSO compound stock solutions was prepared ([…]). An aliquot of 4 μL stock solution was added to 196 μL PBS buffer (pH 7.4). A series of concentrations were prepared (3.13-200 μM), including a blank on a microtiter plate. (2% DMSO-D6) The microtiter plate was shaken for 10 seconds and incubated for 2 hours at 37° C. When there was no turbidity measured at a given concentration the sample was assumed to be dissolved.

A short description of data set [5]: Plasma stability, rat plasma. The class given is in vitro ADME. The following applies: 37° C., remaining parent compound, read-out: Plasma stability (% recovery after 6 h), Rat. Here is the method:
as §4

Data set [6] concerns IMR-32 Neuroblastoma cells. In words: Erastin-induced ferroptosis in IMR-32 neuroblastoma cells (Sytox Green cell death readout). Conditions: Homo sapiens; IMR-32 cells, 10 μM erastin, compounds 1 nM to 1 μM, triplicate; read-out: IC50, antiferroptotic activity in response to erastin-induced ferroptosis. The class given is cell-based. Here is the method:
In the present invention the potency of a compound inhibiting (or reducing) ferroptosis and/or oxytosis are determined in in vitro or in vivo assays. Typically in vitro assays are used to measure the potency of a candidate compound. Examples of suitable in vitro assays are cellular assays. One non-limiting example of an assay involves the use of the IMR-32 neuroblastoma cell line. The latter is stimulated to enter into ferroptosis upon stimulation with 10 μM erastin, a documented ferroptosis inducer (see for example Dixon et al (2012) Cell 149, 1060-1072 and ferroptosis inhibitors are evaluated for the prevention of erastin induced ferroptosis. Yet another assay is based the glutamate-induced cell death in the hippocampal cell line HT22 and ferroptosis/oxytosis inhibitors are evaluated for the prevention of cell death (see Henke N. et al (2013) Cell Death and Disease 4, e470). Still another assay is based on the sorafinib induced cell death (described to be iron dependent cell death) in hepatocellular carcinoma cells and ferroptosis inhibitors are evaluated for the prevention of cell death (see Louandre C. et al (2013) Int. J. Cancer 133, 1732). The calculated potency of a compound inhibiting ferroptosis and/or oxytosis is typically depicted as an IC50 value. Examples of suitable in vivo assays are typically pre-clinical disease models of for example mice for the diseases benefiting the application of ferroptosis and/or oxytosis inhibitors, as described herein. One non-limiting example of an in vivo assay is based on inducing liver damage in mice by administering the herbicide diquat dibromide monohydrate and ferroptosis inhibitors are evaluated based on reduced levels of liver transaminases in serum (see Ran Q et al (2004) J. Biol. Chem. 279, 53, 55137).
The IC50 values for the individual compounds of the invention were determined in the neuroblastoma, IMR-32 cell line. In brief, IMR-32 cells were subjected to 10 μM erastin, the latter compound is known to induce ferroptosis. A concentration gradient (ranging from 1 nM to 1 μM) of the compounds was applied to the cells. These experiments were performed in a 96-well format (in triplicate), and cell death was analyzed in a fluorescent plate reader by use of a fluorescent cell death dye (1.5 μM Sytox Green). The IC50 values depicted in Table 1 are the concentration values for the individual compounds which are able to overcome ferroptosis.

A short description of data set [7]: Plasma stability, human plasma. Conditions: 37° C., remaining parent compound, read-out: Plasma stability (% recovery after 6 h), Human. The class given is in vitro ADME. Here is the method:
as §4

A short description of data set [8]: Microsomal (metabolic) stability, mouse liver microsomes. Conditions: liver microsomes, pH 7.4.
Excerpt: as §1, §2, §3

Regarding `O=S(=O)(NCCN1CCOCC1)c1ccc(NC2CCCCC2)c(NCc2ccccc2)c1` [Compound 35, 3-(benzylamino)-4-(cyclohexylamino)-N-(2-morpholinoethyl)benzenesulfonamide], the CLint scaled at 10 µM was 22.6 ± 8.1 mL/min/kg in data set [1] (pH 7.4), 326 ± 13.2 mL/min/kg in data set [3] (pH 7.4) and 1220 ± 48 mL/min/kg in data set [8]. For the same compound, the half-life at 10 µM in data set [1] (pH 7.4, Microsomal stability (t1/2), human liver microsomes, 0.5 mg protein/ml, 10 μM compound, 37° C.) is 58.8 ± 21 min; in data set [3] (pH 7.4, Microsomal stability (t1/2), rat liver microsomes, 0.5 mg protein/ml, 10 μM compound, 37° C.), 10.4 ± 0.42 min; in data set [8], 3.06 ± 0.12 min. Also, the recovery at 6 h, 50 μM in data set [2], in data set [5] and in data set [7] was 100% each time. In addition, the “Solubility (kinetic)” value in data set [4] lay in the range of 50 to 100 µM. In addition, in data set [6], the IC50 amounted to 24 nM.

The term CLint scaled denotes the rate of metabolic loss divided by the concentration. As a reminder, the half-life is how long it takes for the measured level to halve. For orientation: IC50 means the concentration at which inhibition is half-maximal.

The values are drawn from patent publication US11339124B2, “3-(benzylamino)-4-(cyclohexylamino)-n-(2-(piperazin-1-yl)ethyl)benzenesulfonamide derivatives and related ferrostatin-1 analogues as cell death inhibitors for treating e.g. stroke” (VIB VZW, priority 2018, dated 2022).
